One compound from patent US20100130516A1, “PURINYL DERIVATIVES AND THEIR USE AS POTASSIUM CHANNEL MODULATORS” (NeuroSearch A/S, priority 2007, published 2010) can be followed below.

The target in the test is T1, hSK3 channels (Homo sapiens, UniProt Q9UGI6).
T1 construct: expressed in transfected cells; host or cells: HEK293
The test is described as follows: Whole-cell patch-clamp recording of ionic current through SK channels (subtype 3). As to conditions: HEK293 cells expressing hSK3 channels. The test is classed as cell-based. On the procedure: The ionic current through small-conductance Ca^2+-activated K^+ channels (SK channels, subtype 3) is recorded using the whole-cell configuration of the patch-clamp technique in a classic patch-clamp set-up using HEK293 tissue culture cells expressing hSK3 channels as described in e.g. WO 2006/100212.
The SC100 value determined is defined as the Stimulating Concentration required for increasing the baseline current by 100%. The below SC100 value is an indication of the SK3 activating properties of the compound of the invention.
In general terms: In patch-clamp work, channel activity is measured electrically.

Turning to `Cc1ccn(-c2nc(Nc3ccc(F)c(F)c3)c3ncn(C)c3n2)n1` [Compound 5.1, (3,4-Difluoro-phenyl)-[9-methyl-2-(3-methyl-pyrazol-1-yl)-9H-purin-6-yl]-amine], the “SC100 (Stimulating Concentration required for increasing the baseline current by 100%)” value was found to be 0.04 µM.
